Bounds are passed on as bounds.

Common to all, as to type: cell-based
Assay [1] addresses T1, A2B receptors (Homo sapiens, UniProt P29275).
T1 sequence (P29275 1-332): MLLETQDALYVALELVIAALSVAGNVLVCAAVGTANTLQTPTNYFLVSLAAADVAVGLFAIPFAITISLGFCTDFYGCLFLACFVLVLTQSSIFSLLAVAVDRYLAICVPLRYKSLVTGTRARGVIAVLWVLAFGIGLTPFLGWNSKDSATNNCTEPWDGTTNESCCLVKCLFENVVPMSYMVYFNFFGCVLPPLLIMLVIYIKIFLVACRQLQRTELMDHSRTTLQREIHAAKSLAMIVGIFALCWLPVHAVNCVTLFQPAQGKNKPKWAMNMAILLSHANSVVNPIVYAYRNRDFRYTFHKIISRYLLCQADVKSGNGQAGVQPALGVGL
The assay is described as follows: functional cAMP (HTRF) assay, recombinant HEK293 cells expressing human A2B receptor, agonist NECA. The arrangement: expressed in transfected cells; host or cells: HEK293.

Assay [2] deals with T2, human A2A receptor (Homo sapiens, UniProt P29274).
T2 construct: expressed in transfected cells; host or cells: HEK293
The assay is described as follows: functional cAMP (HTRF) assay, recombinant HEK293 cells expressing human A2A receptor, agonist NECA.

For assay [3], the target named is T3, human A3 receptor (Homo sapiens, UniProt P0DMS8).
T3 construct: expressed in transfected cells; host or cells: CHO
T3 sequence (P0DMS8 1-318): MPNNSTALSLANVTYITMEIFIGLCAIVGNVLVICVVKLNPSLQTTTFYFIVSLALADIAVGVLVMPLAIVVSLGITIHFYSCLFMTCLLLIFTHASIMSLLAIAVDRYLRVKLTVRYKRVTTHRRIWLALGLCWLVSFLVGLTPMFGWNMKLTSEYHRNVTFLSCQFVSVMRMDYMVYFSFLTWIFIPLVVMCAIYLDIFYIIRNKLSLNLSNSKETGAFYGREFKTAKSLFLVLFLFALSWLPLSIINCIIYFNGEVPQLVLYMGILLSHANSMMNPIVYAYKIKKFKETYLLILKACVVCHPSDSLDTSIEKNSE
The assay is described as follows: functional cAMP (HTRF) assay, recombinant CHO cells expressing human A3 receptor, forskolin, agonist IB-MECA. How it is done: The functional activities of human A2A, A2B, A1 and A3 receptors were determined by quantification of cAMP, being the second messenger for adenosine receptors.
For human A1 and A3 receptors, recombinant CHO cells, expressing either A1 or A3-receptor, were used. As both receptors couple to Gi proteins, the assay protocol was adapted:
Cells were seeded into 384-well plates, forskolin, test compounds and agonists (CPA for A1- and IB-MECA for A3-receptor) were added. After 30 min incubation, HTRF reagents (cAMP dynamic 2, Cis Bio) were added and the cellular cAMP levels were determined using the ENVISION (Perkin Elmer) plate reader. Obtained raw data were normalized against the inhibitor control and the neural control (DMSO) and the normalized data were fitted using GeneData software.

T2 sequence (P29274 whole entry): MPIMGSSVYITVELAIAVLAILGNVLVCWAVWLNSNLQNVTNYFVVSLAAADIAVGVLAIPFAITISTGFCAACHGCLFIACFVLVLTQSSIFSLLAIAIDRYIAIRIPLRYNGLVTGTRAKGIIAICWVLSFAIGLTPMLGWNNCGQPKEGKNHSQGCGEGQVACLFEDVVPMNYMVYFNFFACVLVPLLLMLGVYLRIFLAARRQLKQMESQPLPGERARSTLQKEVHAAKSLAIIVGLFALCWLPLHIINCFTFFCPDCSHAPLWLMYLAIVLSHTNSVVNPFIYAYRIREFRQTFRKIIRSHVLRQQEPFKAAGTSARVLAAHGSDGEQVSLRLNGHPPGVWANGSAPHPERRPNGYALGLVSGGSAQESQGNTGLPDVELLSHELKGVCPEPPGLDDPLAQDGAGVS

`COc1ccc(-c2ccccc2)c2nc(NC(=O)c3ccc(F)cc3)[nH]c12` [compound 2, 4-Fluoro-N-(7-methoxy-4-phenyl-1H-benzoimidazol-2-yl)-benzamide]: the IC50 is under 100 nM in assay [1], under 10 nM in assay [2] and under 10 nM in assay [3].

In the case of `COc1ccc(-c2ccccc2)c2nc(NC(=O)c3ccnc(Br)c3)[nH]c12` [compound 3, 2-Bromo-N-(7-methoxy-4-phenyl-1H-benzoimidazol-2-yl)-isonicotinamide], the IC50 in assay [1] was under 100 nM; in assay [2], under 10 nM; in assay [3], under 10 nM.

In the case of `COc1ccc(-c2ccccc2)c2nc(NC(=O)c3ccc(Br)nc3)[nH]c12` [compound 5, 6-Bromo-N-(7-methoxy-4-phenyl-1H-benzoimidazol-2-yl)-nicotinamide], the figures for the IC50 in assay [1], in assay [2] and in assay [3] were under 100 nM, under 10 nM and under 10 nM, respectively.

`COc1ccc(C2CCCCC2)c2nc(NC(=O)c3ccnc(N4CCOCC4)c3)[nH]c12` [compound 17, N-(4-Cyclohexyl-7-methoxy-1H-benzoimidazol-2-yl)-2-morpholin-4-yl-isonicotinamide]: the IC50 in assay [1] was over 1000 nM; in assay [2] it was under 10 nM; in assay [3] it was under 1000 nM.

Regarding `COc1ccc(-c2ccccc2)c2nc(NC(=O)N3CCC(C)CC3)[nH]c12` [compound 28, 4-Methyl-piperidine-1-carboxylic acid (7-methoxy-4-phenyl-1H-benzoimidazol-2-yl)-amide], the IC50 in assay [1] was under 1000 nM; in assay [2] it was under 10 nM; in assay [3] it was under 1000 nM.

Take `COc1ccc(-c2cnn(C)c2)c2nc(NC(=O)c3ccnc(N4CCC(C)(O)C4)c3)[nH]c12` (stereo not drawn) [compound 30, 2-(3-Hydroxy-3-methyl-pyrrolidin-1-yl)-N-[7-methoxy-4-(1-methyl-1H-pyrazol-4-yl)-1H-benzoimidazol-2-yl]-isonicotinamide]: the figures for the IC50 in assay [1], in assay [2] and in assay [3] were over 1000 nM, under 10 nM and under 1000 nM, respectively.

On to `COc1ccc(-c2cnn(C)c2)c2nc(NC(=O)c3cnc(C)o3)[nH]c12` [compound 215, N-[7-methoxy-4-(1-methyl-1H-pyrazol-4-yl)-1H-1,3-benzodiazol-2-yl]-2-methyl-1,3-oxazole-5-carboxamide], for which the results for the IC50 in assay [1] and in assay [2] were under 100 nM and under 10 nM, respectively.

Turning to `COc1ccc(-c2cnn(CC(C)(C)O)c2)c2[nH]c(NC(=O)N3CCC(C)(O)CC3)nc12` [compound 238, 4-hydroxy-N-{7-[1-(2-hydroxy-2-methylpropyl)-1H-pyrazol-4-yl]-4-methoxy-1H-1,3-benzodiazol-2-yl}-4-methylpiperidine-1-carboxamide], the IC50 in assay [2] was under 100 nM; in assay [3], over 1000 nM.

Turning to `COc1ccc(-c2cccc(F)c2)c2nc(NC(=O)c3cnn(C)c3)[nH]c12` [compound 239, N-[4-(3-fluorophenyl)-7-methoxy-1H-1,3-benzodiazol-2-yl]-1-methyl-1H-pyrazole-4-carboxamide], the IC50 in assay [1] and in assay [2] was under 10 nM each time.

Take `COc1ccc(-c2cnn(C)c2)c2nc(NC(=O)C3CNC(=O)C3)[nH]c12` (stereo not drawn) [compound 246, N-[7-methoxy-4-(1-methyl-1H-pyrazol-4-yl)-1H-1,3-benzodiazol-2-yl]-5-oxopyrrolidine-3-carboxamide]: the IC50 in assay [2] is under 100 nM; in assay [3], over 1000 nM.

Consider `COc1ccc(-c2cnn(C)c2)c2nc(NC(=O)NCc3nccs3)[nH]c12` [compound 247, 3-[7-methoxy-4-(1-methyl-1H-pyrazol-4-yl)-1H-1,3-benzodiazol-2-yl]-1-[(1,3-thiazol-2-yl)methyl]urea], for which the IC50 in assay [2] was under 100 nM; in assay [3], over 1000 nM.

For `COc1ccc(-c2cnn(C)c2)c2nc(NC(=O)N[C@@H]3CNC[C@@H]3F)[nH]c12` [compound 249, 1-[(3R,4S)-4-fluoropyrrolidin-3-yl]-3-[7-methoxy-4-(1-methyl-1H-pyrazol-4-yl)-1H-1,3-benzodiazol-2-yl]urea], in assay [2], the IC50 is under 100 nM.

In the case of `COc1ccc(C2CCOCC2)c2nc(NC(=O)c3cccc(N=S(C)(C)=O)c3)[nH]c12` [compound 263, 3-{[dimethyl(oxo)-lambda6-sulfanylidene]amino}-N-[7-methoxy-4-(oxan-4-yl)-1H-1,3-benzodiazol-2-yl]benzamide], the results for the IC50 in assay [2] and in assay [3] were under 100 nM and over 1000 nM, respectively.

With `COCCn1cc(C(=O)Nc2nc3c(-c4ccc5cc[nH]c5c4)ccc(OC)c3[nH]2)cn1` [compound 280, N-[4-(1H-indol-6-yl)-7-methoxy-1H-1,3-benzodiazol-2-yl]-1-(2-methoxyethyl)-1H-pyrazole-4-carboxamide], the IC50 in assay [1] and in assay [2] was under 100 nM throughout.

`COc1ccc(-c2ccccc2)c2nc(NC(=O)c3cnc4ccccn34)[nH]c12` [compound 286, N-(7-methoxy-4-phenyl-1H-1,3-benzodiazol-2-yl)imidazo[1,2-a]pyridine-3-carboxamide]: the IC50 in assay [1] and in assay [2] was under 100 nM throughout.

As to `COc1ccc(-c2ccccc2)c2nc(NC(=O)c3cnc4ncccn34)[nH]c12` [compound 289, N-(7-methoxy-4-phenyl-1H-1,3-benzodiazol-2-yl)imidazo[1,2-a]pyrimidine-3-carboxamide], the IC50 is under 10 nM in assay [1] and under 100 nM in assay [2].

On to `COc1ccc(-c2ccccc2)c2nc(NC(=O)c3c[nH]c(-c4ccncc4)n3)[nH]c12` [compound 290, N-(7-methoxy-4-phenyl-1H-1,3-benzodiazol-2-yl)-2-(pyridin-4-yl)-1H-imidazole-4-carboxamide], for which the IC50 in assay [1] and in assay [2] was under 100 nM each time.

As to `COc1ccc(-c2ccnc(C)c2)c2[nH]c(NC(=O)c3c[nH]cn3)nc12` [compound 299, N-[4-methoxy-7-(2-methylpyridin-4-yl)-1H-1,3-benzodiazol-2-yl]-1H-imidazole-4-carboxamide], the IC50 in assay [1] and in assay [2] was under 100 nM each time.

Consider `COc1cc(C#N)c(-c2ccccc2)c2nc(NC(=O)c3cnn(C)c3)[nH]c12` [compound 300, N-(5-cyano-7-methoxy-4-phenyl-1H-1,3-benzodiazol-2-yl)-1-methyl-1H-pyrazole-4-carboxamide], for which the IC50 in assay [1] and in assay [2] was under 100 nM throughout.

Regarding `COCCn1cc(C(=O)Nc2nc3c(-c4ccn5ccnc5c4)ccc(OC)c3[nH]2)cn1` [compound 301, N-(4-{imidazo[1,2-a]pyridin-7-yl}-7-methoxy-1H-1,3-benzodiazol-2-yl)-1-(2-methoxyethyl)-1H-pyrazole-4-carboxamide], the IC50 in assay [2] was under 100 nM; in assay [3], under 1000 nM.

Consider `COCCn1cc(C(=O)Nc2nc3c(-c4ccc5[nH]ccc5c4)ccc(OC)c3[nH]2)cn1` [compound 302, N-[4-(1H-indol-5-yl)-7-methoxy-1H-1,3-benzodiazol-2-yl]-1-(2-methoxyethyl)-1H-pyrazole-4-carboxamide], for which the IC50 in assay [1] and in assay [2] was under 100 nM in each case.

As for `COc1ccc(-c2ccc3[nH]ccc3c2)c2nc(NC(=O)N3CCC(C)(O)CC3)[nH]c12` [compound 303, 4-hydroxy-N-[4-(1H-indol-5-yl)-7-methoxy-1H-1,3-benzodiazol-2-yl]-4-methylpiperidine-1-carboxamide], the IC50 in assay [2] was under 100 nM; in assay [3], over 1000 nM.

On to `COc1ccc(-c2ccccc2)c2nc(NC(=O)c3cnn(C)c3)[nH]c12` [compound 306, N-(7-methoxy-4-phenyl-1H-1,3-benzodiazol-2-yl)-1-methyl-1H-pyrazole-4-carboxamide], for which the IC50 in assay [1] was under 10 nM; in assay [2], under 100 nM.

Regarding `COCCn1cc(C(=O)Nc2nc3c(-c4ccccc4)ccc(OC)c3[nH]2)cn1` [compound 307, N-(7-methoxy-4-phenyl-1H-1,3-benzodiazol-2-yl)-1-(2-methoxyethyl)-1H-pyrazole-4-carboxamide], the IC50 in assay [1] is under 10 nM; in assay [2] it was under 100 nM.

Turning to `COc1ccc(-c2ccccc2)c2nc(NC(=O)c3cnc(C)o3)[nH]c12` [compound 308, N-(7-methoxy-4-phenyl-1H-1,3-benzodiazol-2-yl)-2-methyl-1,3-oxazole-5-carboxamide], the IC50 in assay [1] and in assay [2] was under 100 nM in each case.

For `COc1ccc(-c2ccccc2)c2nc(NC(=O)c3ccc(C(=O)N(C)C)cc3)[nH]c12` [compound 309, N4-(7-methoxy-4-phenyl-1H-1,3-benzodiazol-2-yl)-N1,N1-dimethylbenzene-1,4-dicarboxamide], the IC50 in assay [1] was under 10 nM; in assay [2] it was under 100 nM.

For the origin of these results see US11453647B2, “Benzimidazole derivatives as adenosine receptor antagonists” (Merck Patent GmbH, priority 2017, dated 2022).
